Read-outs that look alike come from different tables or passages of the source.
Key:
[1] = tested on: HT-1080 fibrosarcoma cells; assay: MTT cell viability assay, HT-1080; type: cell-based, human; settings: for Fold change: HT-1080, IC50 at 1% O2 to IC50 at 21% O2; for IC50: Homo sapiens
Protocol: (§1) Cells (5×10^3) were cultured in 96-well plates and pre-incubated under 21% O2 or 1% O2 for 4 h following the addition of drugs for 72 h. Cell viability was measured using the 3-(4,5-dimethylthiazol-2-yl)-2,5-diphenyltetrazolium bromide (MTT) dye (Life Technologies) according to manufacturer's instructions. Because hypoxic conditions may affect the reduction of MTT to formazan, incubation of all cell cultures with MTT were performed under normoxic conditions. Each experiment was performed in triplicate and at least three independent experiments were performed. Log-scale dose-response data were plotted on a graph and a three-parameter non-linear regression was applied to determine IC50 values. For calculation of the IC50s, both normoxic and hypoxic drug-treated samples were normalized with their untreated counterpart.
To assess the role of pH in hypoxia-induced resistance to anthracyclines, the human breast cancer MDA-MB-231 and fibrosarcoma HT-1080 cell lines were incubated in the presence or absence of the commonly used anthracycline drugs, doxorubicin (Dox), daunorubicin (Dau) and the anthracycline analog drug, mitoxantrone (Mtx), under hypoxic (1% O2) or normoxic (21% O2) conditions for 72 hours. Cell viability was then assessed using the MTT assay. The impact of extracellular pH on Dox uptake by HT-1080 was also assessed.

[2] = tested on: HT-1080 overexpressing NHE6^527-588 peptide; assay: MTT cell viability assay in HT-1080 expressing NHE6^527-588 or scrambled peptide; type: cell-based, human; settings: for IC50: Homo sapiens, read-out: IC50 of doxorubicin
Protocol: peGFP-N3-NHE6 was generously provided by Hiroshi Kanazawa (Osaka University, Japan). pcDNA3-HA/NHE6 was constructed from peGFP-N3-NHE6. For this, the entire NHE6 coding sequence was excised with BamHI and EcoRI restriction enzymes and cloned in pcDNA3-HA vector. pcDNA3-HA/NHE6^527-588 was designed from pcDNA3-HA/NHE6 using the following primers: […]
HT-1080 cells were stably transfected with Polyethylenimine (PEI, MirusBio) and positive cells were selected with Geneticin™ (G418) at 400 μg/mL. In the case of MDA-MB-231 cells, plasmids were transfected using Lipofectamine™ 2000 ([…]) and G418 was added to cell cultures at a concentration of 2 mg/mL.
as §1
The middle portion (position 527-588) of the NHE6 cytoplasmic tail has previously been reported to interact with RACK1^31. Stable HT-1080 cells expressing the NHE6^527-588 fragment or a scrambled counterpart were generated.

HT-1080 tumor xenografts = assay: Chorioallantoic membrane (CAM) xenograft assay, HT-1080; type: in vivo, chick embryo; settings: HT-1080 on CAM
Protocol: (§2) Fertilized eggs from white leghorn chicken were obtained from Public Health Agency of Canada (Nepean, ON). Ethics approval was obtained from the Ethics Committee on Animal Research of the University of Sherbrooke and all experimental procedures involving embryos were conducted in accordance with the regulations of the Canadian Council on Animal Care. Eggs were incubated in an Ova-Easy egg incubator (Brinsea) at 37° C. with 60% humidity. At Day 3, eggs were cracked as described^67. At Day 9, HT-1080 and MDA-MB-231 cell suspensions (1×10^6 and 2×10^6 cells, respectively) were mixed (1:1) with growth factor reduced Matrigel (BD Biosciences) in a total volume of 20 μl. Cell grafts were placed on top of the CAM and eggs were returned to the incubator for 96 h until Day 13 (n>6 chick embryos per cell line). When mentioned, 50 μl of Dox were added topically to the formed tumors (Day 13 after tumor cell grafting). At Day 16, chick embryos were euthanatized by decapitation. Tumors were removed and tumor volumes were calculated using the formula: (Dd^2/3). For RNA quantification, tumors were immediately snap-frozen in liquid nitrogen and kept at −80° C. until RNA extraction using the Trizol reagent.
(§3) To determine whether these observations were of relevance to tumor therapy in vivo, the inventors used an ex ovo chorioallantoic membrane (CAM) xenograft model in live chicken embryos^40. MDA-MB-231 or HT-1080 cells, or cells expressing either the NHE6^527-588 competing fragment or its scrambled counterpart were inoculated onto the CAM of 9-day-old chick embryos. After allowing 3 days for cells to engraft, tumors were treated with Doxorubicin or PBS. Four days later, chick embryos were euthanized, and tumors were removed for analysis (FIG. 10A). To first ascertain that tumors implanted in CAM developed hypoxia, total mRNA was extracted from tumors generated by untransfected HT-1080 cells and gene expression of the hypoxic markers CA9, GLUT1 and MCT4 was measured by qPCR. […]

[3] = tested on: MDA-MB-231 tumor xenografts; assay: Chorioallantoic membrane (CAM) xenograft assay, MDA-MB-231; type: in vivo, chick embryo; settings: MDA-MB-231 on CAM
Protocol: as §2, §3

**Q.** Which results are given for `COc1cccc2c1C(=O)c1c(O)c3c(c(O)c1C2=O)C[C@@](O)(C(=O)CO)C[C@@H]3O[C@H]1C[C@H](N)[C@H](O)[C@H](C)O1` [Dox, doxorubicin]?
**A.** Fold change [1]: 4.1 fold; Fold change ([1]; Baf 100 nM or Cq 10 μM where combined): 4.0 fold; increase in resistance toward the drug by hypoxia ([1]; HT-1080 cells (so in the source), 1% O2 vs 21% O2): 5.5 fold; IC50 ([1]; HT-1080, 72 h, HT-1080, 1% O2, 72 h, read-out: IC50 of anthracyclines): 301 nM; IC50 ([1]; HT-1080, 72 h, HT-1080, 21% O2, 72 h, read-out: IC50 of anthracyclines): 73.4 nM; IC50 ([1]; HT-1080, HT-1080, 1% O2, Baf 100 nM or Cq 10 μM where combined, read-out: IC50 of doxorubicin, cells treated with neutralizing agents): 448 nM; IC50 ([1]; HT-1080, HT-1080, 21% O2, Baf 100 nM or Cq 10 μM where combined, read-out: IC50 of doxorubicin, cells treated with neutralizing agents): 113 nM; IC50 ([2]; HT-1080, HT-1080 expressing scrambled peptide (scr), 1% O2): 521 nM; IC50 ([2]; HT-1080, HT-1080 expressing scrambled peptide (scr), 21% O2): 117 nM; IC50 ([2]; HT-1080, HT-1080 overexpressing NHE6^527-588 peptide, 1% O2): 224 nM; IC50 ([2]; HT-1080, HT-1080 overexpressing NHE6^527-588 peptide, 21% O2): 137 nM; Fold ([2]; NHE6^527-588, 1% O2 vs 21% O2): 1.6 fold; Fold ([2]; scr, 1% O2 vs 21% O2): 4.4 fold; tumor growth (HT-1080 tumor xenografts; 0.5 μM Dox): unaffected; tumor growth (HT-1080 tumor xenografts; 2 μM Dox topical): significantly reduced; tumor growth ([3]; 1 μM Dox): unaffected; tumor growth ([3]; 5 μM Dox topical): significantly reduced

Reference: US10973840B2, “Methods of sensitizing tumor cells to weak base chemotherapeutic drugs” (SOCPRA SCIENCES SANTÉ ET HUMAINES S.E.C., priority 2017, dated 2021)
